Here are results for one molecule from patent publication US20160220609A1, “REGULATION OF STEROIDOGENIC ACTIVITY BY USING PURIFIED SHILAJIT” (NATREON, INC., priority 2013, published 2016).

The test system of the experiment is steroidogenic genes in mouse skeletal muscle. In words: Gene expression profiling (Affymetrix GeneChip) of skeletal muscle of mice supplemented for 12 weeks. The class given is in vivo. The settings on record: 10 mg/kg body weight intragastric in DMSO/corn oil. Here is the method: Procedure for Studies in Mice Using Shilajit and DBPs:
Three groups of adult mice (n=8) were intragastrically supplemented with purified Shilajit (PS), 3,8-(OH)2-DBP, or placebo for 12 weeks. At the end of week 12, skeletal muscle tissue was harvested for gene profiling. Some tissue was stored for histology and HPLC analysis.
The control group of mice received DMSO in corn oil while the PS group received 100 mg of purified Shilajit/kg body weight of mice, dissolved in water and the DBP group received 10 mg of 3,8-(OH)2-DBP/kg body weight of mice, dissolved in DMSO/corn oil.
At week 12, the following tissues were collected from mice: heart, lung, liver, brain, muscles, adipose tissue, skeletal muscle (vastus lateralis) and whole blood.
Gene Expression Profiling using GeneChip® Assay
Affymetrix GeneChip® technology (Affymetrix, Santa Clara, Calif.) was used for transcriptome profiling of skeletal muscle tissue. Gene chip assays were performed in accordance with the following references: Roy, S., Biswas, S., Khanna, S., Gordillo, G., Bergdall, V., Green, J., Marsh, C. B., Gould, L. J., Sen, C. K., “Characterization of a preclinical model of chronic ischemic wound,” Physiol. Genomics (2009) May 13; 37(3):211-24; Roy, S., Khanna, S., Rink, C., Biswas, S., Sen, C. […]

Consider `O=c1oc2cc(O)ccc2c2ccc(O)cc12` [3,8-(OH)2-DBP, 3,8-dihydroxy-dibenzo-a-pyrone], for which the “Effect on steroidogenic activity in mice” value is “did not show significant effect”.
